Experimental data: US10988482B2, “IRAK4 inhibitor and use thereof” (BEIJING HANMI PHARMACEUTICAL CO., LTD., priority 2015, dated 2021)

Molecular target: IRAK4 kinase (Homo sapiens (Human), UniProt Q9NWZ3)
Test: IRAK4 kinase activity inhibition assay (ADP-Glo)
Format: biochemical
Settings: 10 μM ATP, MBP substrate, 60 min at 25° C.
Method: IRAK4 kinase (purchased from Life Technologies, Cat. No.: PR5612U) was diluted to 2 folds of the final concentration (the final concentration is 0.76 ng/μL) with reaction buffer (40 mM Tris-HCl, pH 7.5; 20 mM MgCl2; 0.1 mg/mL BSA; 1 mM DTT), and added to a 384-well plate at 5 μL/well. The test drugs were 10-fold serial diluted from 10 μM to set six concentration points and added to the test wells of the 384-well plate at 2.5 μL/well. After incubation for 10 min at 25° C., 10 μM of ATP and […] of an enzyme reaction substrate, myelin basic protein MBP (purchased from SignalChem, Cat. No.: M42-51N) were added at 2.5 µL/well, and reacted at 25° C. for 60 minutes. After the reaction was completed, the kinase activity assay was performed using the ADP-Glo™ kinase assay kit (purchased from Promega, Cat. No.: V9102) according to the manufacture's instruction, i.e., 10 μL of ADP-Glo reaction reagent was first added and reacted at 25° C. for 40 minutes, 10 μL of the solution to be tested was taken and mixed with 10 μL of ADP-Glo detection reagent, and reacted at 25° C. for 30 minutes. The kinase activity was then detected, and the IC50 values of the test drugs were calculated.

IRAK4 kinase, sequence (Q9NWZ3 whole entry): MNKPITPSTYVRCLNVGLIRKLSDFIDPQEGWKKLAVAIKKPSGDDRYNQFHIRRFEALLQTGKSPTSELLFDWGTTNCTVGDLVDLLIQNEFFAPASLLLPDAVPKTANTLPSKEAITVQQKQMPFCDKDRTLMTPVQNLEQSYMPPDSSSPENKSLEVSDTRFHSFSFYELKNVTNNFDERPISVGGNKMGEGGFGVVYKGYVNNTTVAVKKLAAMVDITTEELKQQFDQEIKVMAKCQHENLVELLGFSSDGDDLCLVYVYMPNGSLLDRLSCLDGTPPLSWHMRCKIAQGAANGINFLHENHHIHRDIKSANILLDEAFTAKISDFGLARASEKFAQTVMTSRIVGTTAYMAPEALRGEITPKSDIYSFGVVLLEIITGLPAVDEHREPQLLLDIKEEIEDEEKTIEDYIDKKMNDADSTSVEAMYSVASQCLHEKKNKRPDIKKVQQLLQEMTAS

| Compound | IC50 [nM] |
| --- | --- |
| O[C@H]1CC[C@H](Nc2nc(Nc3cnn(-c4ccncc4)c3)nc3ccsc23)CC1 [Compound 38] | ≤ 100 |
| O[C@H]1CC[C@H](Nc2nc(Nc3cnn(-c4cccc(N5CCOCC5)c4)c3)nc3ccsc23)CC1 [Compound 34] | 100 to 1000 |
| C[C@]1(O)CC[C@H](Nc2nc(Nc3cc(C(=O)NC4CCOCC4)ns3)nc3ccsc23)CC1 [Compound 57] | ≤ 100 |
| O[C@H]1CC[C@H](Nc2nc(Nc3cnn(-c4ccc(N5CCOCC5)cc4)c3)nc3ccsc23)CC1 [Compound 35] | 100 to 1000 |
| Cc1cc(Nc2nc(N[C@H]3CC[C@H](N4CCCCC4)CC3)c3c(ccn3CCC(N)=O)n2)sn1 [Compound 108] | ≤ 100 |
| Cc1cc(Nc2nc(N[C@H]3CC[C@](C)(O)CC3)c3c(ccn3Cc3cccnc3)n2)sn1 [Compound 106] | 100 to 1000 |
| Cc1cc(Nc2nc(N[C@H]3CC[C@H](O)CC3)c3occc3n2)sn1 [Compound 76, trans-4-((2-((3-methylisothiazol-5-yl)amino)furo[3,2-d]pyrimidin-4-yl)amino)cyclohexanol] | 100 to 1000 |
| C[C@]1(O)CC[C@H](Nc2nc(Nc3ccc(C(=O)NC4CCNCC4)cc3)nc3ccsc23)CC1 [Compound 66] | 100 to 1000 |
| Cc1cc(Nc2nc(N[C@H]3CC[C@H](O)CC3)c3c(ccn3C)n2)sn1 [Compound 104, trans-4-((5-methyl-2-((3-methylisothiazol-5-yl)amino)-5H-pyrrolo[3,2-d]pyrimidin-4-yl)amino)cyclohexanol] | ≤ 100 |
| CCC1(O)CCC(Nc2nc(Nc3cc(C)ns3)nc3ccsc23)CC1 (stereo not shown) [Compound 12] | 100 to 1000 |
| Cc1cc(Nc2nc(N[C@H]3CC[C@@H](N)CC3)c3sccc3n2)sn1 [Compound 79] | ≤ 100 |
| Oc1ccc(-n2cc(Nc3nc(N[C@H]4CC[C@H](O)CC4)c4sccc4n3)cn2)cc1 [Compound 31] | 100 to 1000 |
| O[C@H]1CC[C@H](Nc2nc(Nc3ccncc3)nc3ccsc23)CC1 [Compound 21] | 1000 to 10000 |
| O[C@H]1CC[C@H](Nc2nc(Nc3cnn(-c4cncnc4)c3)nc3ccsc23)CC1 [Compound 40] | 100 to 1000 |
| Cc1cc(Nc2nc(N[C@H]3CC[C@H](N(C)C)CC3)c3sccc3n2)sn1 [Compound 91, N^4-(trans-4-(dimethylamino)cyclohexyl)-N^2-(3-methylisothiazol-5-yl)thieno[3,2-d]pyrimidine-2,4-diamine] | ≤ 100 |
| O[C@H]1CC[C@H](Nc2nc(Nc3ccc(OC4CCOC4)cc3)nc3ccsc23)CC1 (stereo partly drawn) [Compound 69, trans-4-((2-((4-((tetrahydrofuran-3-yl)oxy)phenyl)amino)thieno[3,2-d]pyrimidin-4-yl)amino)cyclohexanol] | 100 to 1000 |
| CN[C@H]1CC[C@@H](Oc2nc(Nc3cc(C)ns3)nc3ccsc23)CC1 [Compound 90] | 100 to 1000 |
| Cc1cc(Nc2nc(N[C@H]3C[C@@H](N)C3)c3sccc3n2)sn1 [Compound 78] | ≤ 100 |
| CN1CCN(Cc2cc(Nc3nc(N[C@H]4CC[C@](C)(O)CC4)c4sccc4n3)sn2)CC1 [Compound 75] | 1000 to 10000 |
| Cc1cc(Nc2nc(N[C@@H]3CC[C@H](O)[C@@H](O)C3)c3sccc3n2)sn1 [Compound 14] | ≤ 100 |
| Cc1cc(Nc2nc(N[C@H]3CC[C@@H](N(C)C)CC3)c3sccc3n2)sn1 [Compound 92] | 100 to 1000 |
| C[C@]1(O)CC[C@H](Nc2nc(Nc3cc(C(=O)Nc4cccnc4)ns3)nc3ccsc23)CC1 [Compound 62] | 100 to 1000 |

| Compound | IC50 [nM] |
| --- | --- |
| C[C@]1(O)CC[C@H](Nc2nc(Nc3cc(C(=O)N[C@H]4CCNC4)cs3)nc3ccsc23)CC1 [Compound 47] | ≤ 100 |
| COc1cc(Nc2nc(N[C@H]3CC[C@](C)(O)CC3)c3sccc3n2)ccn1 [Compound 23] | 100 to 1000 |
| Cc1cc(Nc2nc(N[C@H]3CC[C@](C)(O)CC3)c3sccc3n2)cc(C)n1 [Compound 22] | 100 to 1000 |
| CN(C)C1CCN(C(=O)c2ccc(Nc3nc(N[C@H]4CC[C@H](O)CC4)c4sccc4n3)cc2)CC1 [Compound 68] | 100 to 1000 |
| Cc1cc(Nc2nc(N[C@H]3CC[C@H](O)CC3)c3sccc3n2)sn1 [Compound 1, trans-4-((2-((3-methylisothiazol-5-yl)amino)thieno[3,2-d]pyrimidin-4-yl)amino)cyclohexanol] | ≤ 100 |
| CCN(CC)[C@H]1CC[C@H](Nc2nc(Nc3cc(C)ns3)nc3ccsc23)CC1 [Compound 94] | ≤ 100 |
| Cc1cc(Nc2nc(O[C@H]3CC[C@H](N4CCCCC4)CC3)c3sccc3n2)sn1 [Compound 102] | ≤ 100 |
| C[C@]1(O)CC[C@H](Nc2nc(Nc3cc(C(=O)N[C@@H]4CCNC4)cs3)nc3ccsc23)CC1 [Compound 48] | ≤ 100 |
| Cc1cc(Nc2nc(N[C@H]3CC[C@H](N(CCO)CCO)CC3)c3sccc3n2)sn1 [Compound 97] | ≤ 100 |
| CN1CCN(C(=O)c2csc(Nc3nc(N[C@H]4CC[C@](C)(O)CC4)c4sccc4n3)c2)CC1 [Compound 50] | 100 to 1000 |
| COCCNC(=O)c1csc(Nc2nc(N[C@H]3CC[C@](C)(O)CC3)c3sccc3n2)c1 [Compound 46] | 100 to 1000 |
| CN[C@H]1C[C@H](Nc2nc(Nc3cc(C)ns3)nc3ccsc23)C1 [Compound 86, N^4-(trans-3-(methylamino)cyclobutyl)-N^2-(3-methylisothiazol-5-yl)thieno[3,2-d]pyrimidine-2,4-diamine] | 100 to 1000 |
| Cc1cc(Nc2nc(O[C@H]3CC[C@H](O)CC3)c3sccc3n2)sn1 [Compound 15] | 100 to 1000 |
| O[C@H]1CC[C@H](Nc2nc(Nc3cnn(-c4ccncn4)c3)nc3ccsc23)CC1 [Compound 39] | 100 to 1000 |
| C[C@]1(O)CC[C@H](Nc2nc(Nc3cc(C(=O)NC4CCNCC4)n[nH]3)nc3ccsc23)CC1 [Compound 51] | 1000 to 10000 |
| COCCNC(=O)c1cc(Nc2nc(N[C@H]3CC[C@](C)(O)CC3)c3sccc3n2)sn1 [Compound 53] | 100 to 1000 |
| Cc1cc(Nc2nc(NC3CC(O)C3)c3sccc3n2)sn1 (stereo not shown) [Compound 2] | ≤ 100 |
| Cc1cc(Nc2nc(O[C@H]3CC[C@H](N)CC3)c3sccc3n2)sn1 [Compound 83] | ≤ 100 |
| C[C@]1(O)CC[C@H](Nc2nc(Nc3cc(C(=O)NCC4CCNCC4)ns3)nc3ccsc23)CC1 [Compound 54] | ≤ 100 |
| Cc1cc(Nc2nc(NC3CCC(C(N)=O)CC3)c3sccc3n2)sn1 (stereo not shown) [Compound 13] | 100 to 1000 |
| Cc1cc(Nc2nc(N[C@@H]3C[C@H](CO)[C@@H](O)[C@H]3O)c3sccc3n2)sn1 [Compound 7] | ≤ 100 |
| Cc1cc(Nc2nc(N[C@H]3CC[C@H](N4CCCCC4)CC3)c3c(ccn3CCCC#N)n2)sn1 [Compound 107] | ≤ 100 |

| Compound | IC50 [nM] |
| --- | --- |
| CN[C@H]1CC[C@H](Nc2nc(Nc3cc(C)ns3)nc3ccsc23)CC1 [Compound 89] | 100 to 1000 |
| CN1CCN(c2cccc(Nc3nc(N[C@H]4CC[C@](C)(O)CC4)c4sccc4n3)c2)CC1 [Compound 73] | 100 to 1000 |
| CN1CCN(c2ccc(Nc3nc(N[C@H]4CC[C@](C)(O)CC4)c4sccc4n3)cc2)CC1 [Compound 74] | 1000 to 10000 |
| Cc1cc(Nc2nc(N[C@H]3CC[C@H](N4CCCC4)CC3)c3sccc3n2)sn1 [Compound 99] | ≤ 100 |
| Oc1ccccc1-n1cc(Nc2nc(N[C@H]3CC[C@H](O)CC3)c3sccc3n2)cn1 [Compound 29] | 100 to 1000 |
| OCCn1cc(Nc2nc(N[C@H]3CC[C@H](O)CC3)c3sccc3n2)cn1 [Compound 26] | ≤ 100 |
| CNC1CCN(C(=O)c2ccc(Nc3nc(N[C@H]4CC[C@H](O)CC4)c4sccc4n3)cc2)CC1 [Compound 67] | 100 to 1000 |
| Cc1cc(Nc2nc(N[C@H]3C[C@H](N)C3)c3sccc3n2)sn1 [Compound 77, N^4-(trans-3-aminocyclobutyl)-N^2-(3-methylisothiazol-5-yl)thieno[3,2-d]pyrimidine-2,4-diamine] | ≤ 100 |
| C[C@]1(O)CC[C@H](Nc2nc(Nc3cc(C(=O)N[C@@H]4CCCNC4)ns3)nc3ccsc23)CC1 [Compound 56] | ≤ 100 |
| Oc1cccc(-n2cc(Nc3nc(N[C@H]4CC[C@H](O)CC4)c4sccc4n3)cn2)c1 [Compound 30] | 100 to 1000 |
| CC(=O)N1CCC(NC(=O)c2cc(Nc3nc(N[C@H]4CC[C@](C)(O)CC4)c4sccc4n3)sn2)CC1 [Compound 60] | 100 to 1000 |
| C[C@]1(O)CC[C@H](Nc2nc(Nc3ccc(C(=O)N[C@@H]4CCNC4)cc3)nc3ccsc23)CC1 [Compound 64] | 100 to 1000 |
| Cc1cc(Nc2nc(O[C@H]3CC[C@@H](N)CC3)c3sccc3n2)sn1 [Compound 82] | 100 to 1000 |
| C[C@]1(O)CC[C@H](Nc2nc(Nc3cc(C(=O)NC4CCNCC4)cs3)nc3ccsc23)CC1 [Compound 49] | 100 to 1000 |
| O[C@H]1CC[C@H](Nc2nc(Nc3cnn(-c4ccccn4)c3)nc3ccsc23)CC1 [Compound 36] | 100 to 1000 |
| CO[C@H]1CC[C@H](Nc2nc(Nc3cc(C)ns3)nc3ccsc23)CC1 [Compound 16] | 100 to 1000 |
| Cc1cc(Nc2nc(O[C@H]3CC[C@H](N4CCOCC4)CC3)c3sccc3n2)sn1 [Compound 103] | 100 to 1000 |
| C[C@]1(O)CC[C@H](Nc2nc(Nc3cc(C(=O)N[C@@H]4CCNC4)ns3)nc3ccsc23)CC1 [Compound 55] | ≤ 100 |
| C[C@]1(O)CC[C@H](Nc2nc(Nc3cc(C(=O)Nc4ccccc4)ns3)nc3ccsc23)CC1 [Compound 61] | 1000 to 10000 |
| CN1CCC(NC(=O)c2cc(Nc3nc(N[C@H]4CC[C@](C)(O)CC4)c4sccc4n3)sn2)CC1 [Compound 59] | ≤ 100 |
